Literature values, collected in patent publication US20140363510A1, “PHARMACEUTICAL COMPOSITION INCLUDING PIMOBENDAN” (BOEHRINGER INGELHEIM VETMEDICA GMBH, priority 2004, published 2014).

For `COc1ccc(-c2nc3ccc(C4=NNC(=O)CC4C)cc3[nH]2)cc1` (centres unmarked) [Pimobendan, 4,5-dihydro-6-[2-(4-methoxyphenyl)-1H-benzimidazol-5-yl]-5-methyl-3(2H)-pyridazone], the “solubility in aqueous media” value (aqueous media, pH-dependent) is given as “low solubility in aqueous media and a very highly pH-dependent solubility” and the solubility in water (water) is given as “hardly dissolves in water”.
